Experimental data reported in patent US10294202B2, “Pyrrolidinones as herbicides” (FMC Corporation, priority 2013, dated 2019).

Key:
blackgrass = assay: Test A postemergence herbicide test; format: in vivo, Alopecurus myosuroides
Outline: (§1)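 Young potted plants in a loam–sand mix, one- to two-leaf stage and 2–10 cm tall, receive the test chemical postemergence and stay in a greenhouse for approximately 10 days. Injury is then judged by eye against untreated plants, scored 0 (none) to 100 (complete control).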

sedge, umbrella = assay: Test B flooded paddy test; format: in vivo, Cyperus difformis; details: 500 g ai/ha, Flood; scale of 0 to 100 where 0 is no effect and 100 is complete control
Outline: (§2)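 Paddy-water application at a 3 cm flood, young plants having two leaves. Water level maintained; greenhouse, 13–15 days; visual 0–100 control rating.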

corn = assay: Test A pre-/postemergence herbicide test; format: in vivo, Zea mays; details: Postemergence
Outline: (§3)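 Visual 0–100 ratings (100 = complete control) made about 10 days after treatment, greenhouse-held plants compared with untreated controls. Treatments: postemergence sprays on one- to two-leaf plants (2–10 cm tall) and preemergence directed soil sprays after planting in loam–sand, chemicals formulated in non-phytotoxic solvent containing surfactant.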

ducksalad = assay: Test B flooded paddy test; format: in vivo, Heteranthera limosa; details: 500 g ai/ha, Flood; scale of 0 to 100 where 0 is no effect and 100 is complete control
Outline: as §2

barnyardgrass [1] = assay: Test A pre-/postemergence herbicide test; format: in vivo, Echinochloa crus-galli
Outline: as §3

galium = assay: Test A postemergence herbicide test; format: in vivo, Galium aparine
Outline: as §1

barnyardgrass [2] = assay: Test B flooded paddy test; format: in vivo, Echinochloa crus-galli; details: 500 g ai/ha, Flood; scale of 0 to 100 where 0 is no effect and 100 is complete control
Outline: as §2

kochia = assay: Test A pre-/postemergence herbicide test; format: in vivo, Kochia scoparia
Outline: as §3

rice = assay: Test B flooded paddy test; format: in vivo, Oryza sativa; details: 500 g ai/ha, Flood; scale of 0 to 100 where 0 is no effect and 100 is complete control
Outline: as §2

pigweed = assay: Test A pre-/postemergence herbicide test; format: in vivo, Amaranthus retroflexus
Outline: as §3

ragweed = assay: Test A pre-/postemergence herbicide test; format: in vivo, Ambrosia elatior
Outline: as §3

ryegrass, Italian = assay: Test A pre-/postemergence herbicide test; format: in vivo, Lolium multiflorum
Outline: as §3

giant foxtail = assay: Test A pre-/postemergence herbicide test; format: in vivo, Setaria faberii
Outline: as §3

wheat = assay: Test A pre-/postemergence herbicide test; format: in vivo, Triticum aestivum; details: Postemergence
Outline: as §3

[3] = 125 g ai/ha, visual rating on 0 to 100 scale (0 no effect, 100 complete control), approx. 10 days
[4] = 500 g ai/ha, 0 to 100 scale (0 no effect, 100 complete control)
[5] = Postemergence, 125 g ai/ha, visual rating on 0 to 100 scale (0 no effect, 100 complete control), approx. 10 days
[6] = Postemergence, 500 g ai/ha, 0 to 100 scale (0 no effect, 100 complete control)
[7] = Preemergence, 125 g ai/ha, 0 to 100 scale where 0 is no effect and 100 is complete control
[8] = preemergence, 500 g ai/ha, 0 to 100 scale, 0 is no effect and 100 is complete control
[9] = Preemergence, 500 g ai/ha, visual rating on 0 to 100 scale (0 no effect, 100 complete control)
[10] = 125 g ai/ha, 0 to 100 scale, 0 no effect, 100 complete control
[11] = 125 g ai/ha, visual rating, 0 to 100 scale, 0 no effect, 100 complete control, approximately 10 days, preemergence
[12] = Postemergence, 125 g ai/ha, 0 to 100 scale, 0 no effect, 100 complete control
[13] = preemergence, 500 g ai/ha, 0 to 100 scale

Compound: O=C1NCC(c2cc3ccccc3s2)C1C(=O)Nc1ccccc1C(F)(F)F (stereo not drawn) [Compound 297]
- Plant response rating, Blackgrass (blackgrass; [3]): 0
- Plant response rating, Blackgrass (blackgrass; [4]): 10
- Plant response rating, Sedge, Umbrella (sedge, umbrella): 0
- Plant response rating, Corn (corn; [3]): 0
- Plant response rating, Corn (corn; [4]): 0
- Plant response rating, Ducksalad (ducksalad): 0
- Plant response rating, Barnyardgrass (barnyardgrass [1]; [5]): 0
- Plant response rating, Barnyardgrass (barnyardgrass [1]; [6]): 0
- Plant response rating, Barnyardgrass (barnyardgrass [1]; [7]): 0
- Plant response rating, Barnyardgrass (barnyardgrass [1]; [8]): 50
- Plant response rating, Galium (galium; [3]): 0
- Plant response rating, Galium (galium; [4]): 0
- Plant response rating, Barnyardgrass (barnyardgrass [2]): 0
- Plant response rating, Kochia (kochia; [5]): 0
- Plant response rating, Kochia (kochia; [6]): 0
- Plant response rating, Kochia (kochia; [7]): 0
- Plant response rating, Kochia (kochia; [8]): 0
- Plant response rating, Rice (rice): 0
- Plant response rating, Pigweed (pigweed; [5]): 0
- Plant response rating, Pigweed (pigweed; [6]): 0
- Plant response rating, Pigweed (pigweed; [7]): 0
- Plant response rating, Pigweed (pigweed; [8]): 0
- Plant response rating, Ragweed (ragweed; [5]): 0
- Plant response rating, Ragweed (ragweed; [6]): 0
- Plant response rating, Ragweed (ragweed; [7]): 0
- Plant response rating, Ragweed (ragweed; [8]): 0
- Plant response rating, Ryegrass, Italian (ryegrass, Italian; [5]): 0
- Plant response rating, Ryegrass, Italian (ryegrass, Italian; [6]): 0
- Plant response rating, Ryegrass, Italian (ryegrass, Italian; [7]): 0
- Ryegrass, Italian plant response rating (ryegrass, Italian; [9]): 0
- Plant response rating, Foxtail, Giant (giant foxtail; [5]): 0
- Plant response rating, Foxtail, Giant (giant foxtail; [6]): 0
- Plant response rating, Foxtail, Giant (giant foxtail; [7]): 30
- Plant response rating, Foxtail, Giant (giant foxtail; [8]): 70
- Plant response rating, Wheat (wheat; [3]): 0
- Plant response rating, Wheat (wheat; [4]): 0

Compound: Cc1cc(C2CNC(=O)C2C(=O)Nc2ccccc2Cl)ccc1F (racemic) [Compound 143]
- Plant response rating, Blackgrass (blackgrass; [10]): 0
- Blackgrass plant response rating (0 to 100 scale, 0 is no effect, 100 is complete control) (blackgrass; 500 g ai/ha): 0
- Plant response rating, Sedge, Umbrella (sedge, umbrella): 0
- Plant response rating, Corn (corn; [10]): 0
- Corn plant response rating (0 to 100 scale, 0 is no effect, 100 is complete control) (corn; 500 g ai/ha): 0
- Plant response rating, Ducksalad (ducksalad): 100
- Plant response rating, Barnyardgrass (barnyardgrass [1]; [11]): 60
- Plant response rating, Barnyardgrass (barnyardgrass [1]; [12]): 50
- Barnyardgrass plant response rating (0 to 100 scale, 0 is no effect, 100 is complete control) (barnyardgrass [1]; Postemergence, 500 g ai/ha): 90
- Plant response rating, Barnyardgrass (barnyardgrass [1]; preemergence, 500 g ai/ha, 0 to 100 scale (0 no effect, 100 complete control)): 90
- Plant response rating, Galium (galium; [10]): 0
- Galium plant response rating (0 to 100 scale, 0 is no effect, 100 is complete control) (galium; 500 g ai/ha): 40
- Plant response rating, Barnyardgrass (barnyardgrass [2]): 35
- Plant response rating, Kochia (kochia; [11]): 30
- Plant response rating, Kochia (kochia; [12]): 0
- Kochia plant response rating (0 to 100 scale, 0 is no effect, 100 is complete control) (kochia; Postemergence, 500 g ai/ha): 0
- Plant response rating, Kochia (kochia; [13]): 30
- Plant response rating, Rice (rice): 0
- Plant response rating, Pigweed (pigweed; [11]): 0
- Plant response rating, Pigweed (pigweed; [12]): 0
- Pigweed plant response rating (0 to 100 scale, 0 is no effect, 100 is complete control) (pigweed; Postemergence, 500 g ai/ha): 0
- Plant response rating, Pigweed (pigweed; [13]): 0
- Plant response rating, Ragweed (ragweed; [11]): 0
- Plant response rating, Ragweed (ragweed; [12]): 0
- Ragweed plant response rating (0 to 100 scale, 0 is no effect, 100 is complete control) (ragweed; Postemergence, 500 g ai/ha): 0
- Plant response rating, Ragweed (ragweed; [13]): 0
- Plant response rating, Ryegrass, Italian (ryegrass, Italian; [11]): 0
- Plant response rating, Ryegrass, Italian (ryegrass, Italian; [12]): 0
- Ryegrass, Italian plant response rating (0 to 100 scale, 0 is no effect, 100 is complete control) (ryegrass, Italian; Postemergence, 500 g ai/ha): 0
- Plant response rating, Ryegrass, Italian (ryegrass, Italian; [13]): 0
- Plant response rating, Foxtail, Giant (giant foxtail; [11]): 30
- Plant response rating, Foxtail, Giant (giant foxtail; [12]): 20
- Foxtail, Giant plant response rating (0 to 100 scale, 0 is no effect, 100 is complete control) (giant foxtail; Postemergence, 500 g ai/ha): 30
- Plant response rating, Foxtail, Giant (giant foxtail; [13]): 90
- Plant response rating, Wheat (wheat; [10]): 0
- Wheat plant response rating (0 to 100 scale, 0 is no effect, 100 is complete control) (wheat; 500 g ai/ha): 0

Compound: O=C1NCC(c2ccc(Cl)s2)C1C(=O)Nc1cccc(F)c1F (stereo not drawn) [Compound 294]
- Plant response rating, Blackgrass (blackgrass; [3]): 20
- Plant response rating, Blackgrass (blackgrass; [4]): 30
- Plant response rating, Sedge, Umbrella (sedge, umbrella): 0
- Plant response rating, Corn (corn; [3]): 0
- Plant response rating, Corn (corn; [4]): 0
- Plant response rating, Ducksalad (ducksalad): 98
- Plant response rating, Barnyardgrass (barnyardgrass [1]; [5]): 60
- Plant response rating, Barnyardgrass (barnyardgrass [1]; [6]): 90
- Plant response rating, Barnyardgrass (barnyardgrass [1]; [7]): 70
- Plant response rating, Barnyardgrass (barnyardgrass [1]; [8]): 90
- Plant response rating, Galium (galium; [3]): 0
- Plant response rating, Galium (galium; [4]): 30
- Plant response rating, Barnyardgrass (barnyardgrass [2]): 20
- Plant response rating, Kochia (kochia; [5]): 30
- Plant response rating, Kochia (kochia; [6]): 50
- Plant response rating, Kochia (kochia; [7]): 40
- Plant response rating, Kochia (kochia; [8]): 90
- Plant response rating, Rice (rice): 0
- Plant response rating, Pigweed (pigweed; [5]): 0
- Plant response rating, Pigweed (pigweed; [6]): 0
- Plant response rating, Pigweed (pigweed; [7]): 0
- Plant response rating, Pigweed (pigweed; [8]): 20
- Plant response rating, Ragweed (ragweed; [5]): 0
- Plant response rating, Ragweed (ragweed; [6]): 20
- Plant response rating, Ragweed (ragweed; [7]): 0
- Plant response rating, Ragweed (ragweed; [8]): 0
- Plant response rating, Ryegrass, Italian (ryegrass, Italian; [5]): 0
- Plant response rating, Ryegrass, Italian (ryegrass, Italian; [6]): 20
- Plant response rating, Ryegrass, Italian (ryegrass, Italian; [7]): 0
- Ryegrass, Italian plant response rating (ryegrass, Italian; [9]): 30
- Plant response rating, Foxtail, Giant (giant foxtail; [5]): 30
- Plant response rating, Foxtail, Giant (giant foxtail; [6]): 80
- Plant response rating, Foxtail, Giant (giant foxtail; [7]): 70
- Plant response rating, Foxtail, Giant (giant foxtail; [8]): 90
- Plant response rating, Wheat (wheat; [3]): 20
- Plant response rating, Wheat (wheat; [4]): 20
